This test has as its target T1, human NEP (Homo sapiens, UniProt P08473).
T1 construct: purchased R&D Systems, Minneapolis, Minn; 1182-ZN
The test is described as follows: In vitro enzyme inhibition assay at human NEP (Assay 1). The class given is biochemical. The settings on record: recombinant human NEP, fluorogenic peptide substrate 10 μM, 37° C.; values may be affected by hydrolysis in the assay conditions, approximations; read-out: pKi at human NEP (converted). The method, then:
The inhibitory activities of compounds at human and rat neprilysin (EC 3.4.24.11; NEP) and human angiotensin converting enzyme (ACE) were determined using in vitro assays as described below.
Recombinant human NEP and recombinant human ACE were obtained commercially (R&D Systems, Minneapolis, Minn., catalog numbers 1182-ZN and 929-ZN, respectively). The fluorogenic peptide substrate Mca-D-Arg-Arg-Leu-Dap-(Dnp)-OH (Medeiros et al. (1997) Braz. J. Med. Biol. Res. 30:1157-62; Anaspec, San Jose, Calif.) and Abz-Phe-Arg-Lys(Dnp)-Pro-OH (Araujo et al. (2000) Biochemistry 39:8519-8525; Bachem, Torrance, Calif.) were used in the NEP and ACE assays respectively.
The assays were performed in 384-well white opaque plates at 37° C. using the fluorogenic peptide substrates at a concentration of 10 μM in Assay Buffer (NEP: 50 mM HEPES, pH 7.5, 100 mM NaCl, 0.01% polyethylene glycol sorbitan monolaurate (Tween-20), 10 μM ZnSO4; ACE: 50 mM HEPES, pH 7.5, 100 mM NaCl, 0.01% Tween-20, 1 μM ZnSO4).
Test compounds were assayed over the range of concentrations from […] to 20 μM. Test compounds were added to the enzymes and incubated for 30 minute at 37° C. prior to initiating the reaction by the addition of substrate. Reactions were terminated after 20 minutes of incubation at 37° C. by the addition of glacial acetic acid to a final concentration of 3.6% (v/v).
Plates were read on a fluorometer with excitation and emission wavelengths set to 320 nm and 405 nm, respectively Inhibition constants were obtained by nonlinear regression of the data using the equation (GraphPad Software, Inc., San Diego, Calif.): v=v0/[1+(I/K′)] where v is the reaction rate, v0 is the uninhibited reaction rate, I is the inhibitor concentration and K′ is the apparent inhibition constant.
Compounds of the invention were tested in this assay and found to have pKi values at human NEP as follows, noting however, that these values may be affected by hydrolysis in the assay conditions and are therefore approximations of activity.

T1 sequence (P08473 52-750 limits assumed): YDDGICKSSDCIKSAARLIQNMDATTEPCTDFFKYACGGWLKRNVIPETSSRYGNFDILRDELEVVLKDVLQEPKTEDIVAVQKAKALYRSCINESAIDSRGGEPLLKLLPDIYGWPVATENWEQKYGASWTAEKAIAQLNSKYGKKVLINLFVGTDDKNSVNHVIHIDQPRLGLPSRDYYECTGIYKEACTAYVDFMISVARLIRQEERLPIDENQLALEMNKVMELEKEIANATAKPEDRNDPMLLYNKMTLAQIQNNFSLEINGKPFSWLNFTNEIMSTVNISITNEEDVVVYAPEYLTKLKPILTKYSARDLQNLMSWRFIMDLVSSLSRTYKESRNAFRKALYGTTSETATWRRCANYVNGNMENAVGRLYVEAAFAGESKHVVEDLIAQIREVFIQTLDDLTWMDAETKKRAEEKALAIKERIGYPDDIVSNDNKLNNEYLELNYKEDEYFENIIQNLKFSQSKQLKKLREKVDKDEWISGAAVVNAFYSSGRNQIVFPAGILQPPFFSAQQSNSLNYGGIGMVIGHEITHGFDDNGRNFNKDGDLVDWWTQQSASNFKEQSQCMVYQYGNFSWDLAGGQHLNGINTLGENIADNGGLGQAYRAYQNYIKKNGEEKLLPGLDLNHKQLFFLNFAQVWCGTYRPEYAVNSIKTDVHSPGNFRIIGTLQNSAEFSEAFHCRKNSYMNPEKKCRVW

As for `O=C(N[C@H](Cc1ccc(-c2ccccc2)cc1)C[C@@H](O)C(=O)OCCCCOc1no[n+]([O-])c1S(=O)(=O)c1ccccc1)c1cc(O)no1` [Example 2, (2R,4R)-5-Biphenyl-4-yl-2-hydroxy-4-[(3-hydroxyisoxazole-5-carbonyl)amino]pentanoic Acid 4-(4-Benzenesulfonyl-5-oxyfurazan-3-yloxy)butyl Ester], the Ki is 0.0316 to 0.1 µM.
Then `O=C(O)C(=O)N[C@H](Cc1ccc(-c2ccccc2)cc1)C[C@@H](O)C(=O)OCCCCOc1no[n+]([O-])c1S(=O)(=O)c1ccccc1` [Example 4, (2R,4R)-5-Biphenyl-4-yl-2-hydroxy-4-(oxalylamino)-pentanoic Acid 4-(4-Benzenesulfonyl-5-oxyfurazan-3-yloxy)butyl Ester], with 0.316 to 1 µM; and `O=C(N[C@H](Cc1ccc(-c2ccccc2)cc1)C[C@@H](O)C(=O)OCCCCO[N+](=O)[O-])c1cc(O)no1` [Example 1, (2R,4R)-5-Biphenyl-4-yl-2-hydroxy-4-[(3-hydroxyisoxazole-5-carbonyl)amino]pentanoic Acid 4-Nitrooxybutyl Ester], with 0.0316 to 0.1 µM.
To `O=C(O)C(=O)N[C@H](Cc1ccc(-c2ccccc2)cc1)C[C@@H](O)C(=O)OCCCCO[N+](=O)[O-]` [Example 3, (2R,4R)-5-Biphenyl-4-yl-2-hydroxy-4-(oxalylamino)-pentanoic Acid 4-Nitrooxybutyl Ester] belongs 0.316 to 1 µM.
